Experimental data: PMC10959927, “Platinum iodido drugs show potential anti-tumor activity, affecting cancer cell metabolism and inducing ROS and senescence in gastrointestinal cancer cells” (Communications Biology, 2024)
Values joined by “and” are separate entries in the source; they are usually repeats but may differ in a detail not shown here. Equal values may be shown once.

What was measured:
[1] = tested on: AGS cells; experiment: Seahorse XF OCR, ECAR and energy map; format: cell-based, human
Protocol: (§1) Oxygen Consumption Rate (OCR), Extra Cellular Acidification Rate (ECAR) and Energy map measurements. Cells were plated in XF HS Miniplates (Seahorse Bioscience) at a cellular density of 1 × 10^4 cells/well and incubated overnight. […] After an OCR baseline measurement, the minimum oxygen consumption was determined by adding 1.5 µM oligomycin (O) and the maximal respiration rate was assessed by adding 1 µM carbonyl cyanide p-trifluoro methoxyphenylhydrazone (FCCP, F). At the end of the experiment, the non-mitochondrial oxygen consumption was evaluated by adding both 0.5 µM rotenone (R) and antimycin (A). Experiments were run in a XF HS Mini analyzer (Seahorse Agilent), and raw data were normalized to total protein using a BCA protein assay kit (Cat. no. 23225, Thermo Scientific).

[2] = tested on: MKN45 cells; experiment: Seahorse XF OCR, ECAR and energy map; format: cell-based, human; design: Basal resp. / Maximal resp. / SRC: unit not given here
Protocol: as §1

Q: With CC(C)[NH][Pt@SP1]([I])([I])[NH]C(C)C [I6, cis-[PtI2(isopropylamine)2]] as the compound, how does the “ECAR, Mean (energy map)” value ([1]; AGS (with I5)) read?
A: 23.74 mpH/min/absorbance

Q: What about the “OCR, Mean (energy map)” value ([1]; AGS (with I5)) of the same compound?
A: 42.84 pmol/min/absorbance

Q: And the “ECAR (energy map)” value ([1]; AGS (with I6))?
A: 45.46 mpH/min/absorbance

Q: And the “ECAR, Mean (energy map)” value ([1]; AGS (with I6))?
A: 48.0093 mpH/min/absorbance

Q: And the “OCR (energy map)” value ([1]; AGS (with I6))?
A: 48.01 pmol/min/absorbance

Q: What about the “OCR, Mean (energy map)” value ([1]; AGS (with I6)) of the same compound?
A: 45.4641 pmol/min/absorbance

Q: What about the “effect on ECAR” value ([1]; AGS, IC50 24 h) of the same compound?
A: no apparent effect

Q: What about the OCR ([1]; AGS, IC50 24 h, time 1.53 min (I5) / 1.53 min (I6)) of the same compound?
A: 30.1319 pmoles/min/µg protein and 31.3797 pmoles/min/µg protein and 53.7109 pmoles/min/µg protein

Q: And the OCR ([1]; AGS, IC50 24 h, time 8.04 min (I5) / 8.02 min (I6))?
A: 24.9329 pmoles/min/µg protein and 27.5046 pmoles/min/µg protein and 48.0298 pmoles/min/µg protein

Q: What about the OCR ([1]; AGS, IC50 24 h, time 14.54 min (I5) / 14.51 min (I6)) of the same compound?
A: 26.4797 pmoles/min/µg protein and 27.4562 pmoles/min/µg protein and 48.9415 pmoles/min/µg protein

Q: What about the OCR ([1]; AGS, IC50 24 h, time 21.13 min (I5) / 21.08 min (I6)) of the same compound?
A: 22.9934 pmoles/min/µg protein and 21.9038 pmoles/min/µg protein and 30.7096 pmoles/min/µg protein

Q: And the OCR ([1]; AGS, IC50 24 h, time 27.59 min (I5) / 27.57 min (I6))?
A: 20.5189 pmoles/min/µg protein and 20.6073 pmoles/min/µg protein and 30.1901 pmoles/min/µg protein

Q: What about the OCR ([1]; AGS, IC50 24 h, time 34.07 min (I5) / 34.06 min (I6)) of the same compound?
A: 21.4481 pmoles/min/µg protein and 20.5528 pmoles/min/µg protein and 31.2982 pmoles/min/µg protein

Q: And the OCR ([1]; AGS, IC50 24 h, time 60.15 min (I5) / 60.16 min (I6))?
A: 12.0701 pmoles/min/µg protein and 11.1961 pmoles/min/µg protein and 18.1823 pmoles/min/µg protein

Q: What about the OCR ([1]; AGS, IC50 24 h, time 66.63 min (I5) / 66.65 min (I6)) of the same compound?
A: 12.0579 pmoles/min/µg protein and 11.0677 pmoles/min/µg protein and 17.3668 pmoles/min/µg protein

Q: And the OCR ([1]; AGS, IC50 24 h, time 73.12 min (I5) / 73.14 min (I6))?
A: 11.7846 pmoles/min/µg protein and 9.533 pmoles/min/µg protein and 17.3382 pmoles/min/µg protein

Q: And the “ECAR, Mean (energy map)” value ([2]; MKN45 (with I5))?
A: 17.85 mpH/min/absorbance

Q: What about the “OCR, Mean (energy map)” value ([2]; MKN45 (with I5)) of the same compound?
A: 73.36 pmol/min/absorbance

Q: What about the “ECAR (energy map)” value ([2]; MKN45 (with I6)) of the same compound?
A: 73.12 mpH/min/absorbance

Q: And the “ECAR, Mean (energy map)” value ([2]; MKN45 (with I6))?
A: 230.729 mpH/min/absorbance

Q: What about the “OCR (energy map)” value ([2]; MKN45 (with I6)) of the same compound?
A: 230.7 pmol/min/absorbance

Q: What about the “OCR, Mean (energy map)” value ([2]; MKN45 (with I6)) of the same compound?
A: 73.1182 pmol/min/absorbance

Q: And the ATP-product. coupled resp. ([2]; MKN45, IC50 24 h)?
A: 104.06 and 161.5 and 167.13

Q: What about the Basal resp. ([2]; MKN45, IC50 24 h) of the same compound?
A: 127.94 and 199.95 and 209.1

Q: And the Maximal resp. ([2]; MKN45, IC50 24 h)?
A: 239.39 and 365.62 and 377.71

Q: What about the SRC ([2]; MKN45, IC50 24 h) of the same compound?
A: 111.45 and 165.66 and 168.61

Q: And the “effect on ECAR” value ([2]; MKN45, IC50 24 h)?
A: no apparent effect

Q: What about the OCR ([2]; MKN45, IC50 24 h, time 1.53 min (I5) / 1.53 min (I6)) of the same compound?
A: 147.857 pmoles/min/µg protein and 218.375 pmoles/min/µg protein and 227.071 pmoles/min/µg protein

Q: What about the OCR ([2]; MKN45, IC50 24 h, time 8.04 min (I5) / 8.03 min (I6)) of the same compound?
A: 138.707 pmoles/min/µg protein and 201.479 pmoles/min/µg protein and 205.427 pmoles/min/µg protein

Q: What about the OCR ([2]; MKN45, IC50 24 h, time 14.51 min (I5) / 14.5 min (I6)) of the same compound?
A: 135.932 pmoles/min/µg protein and 195.066 pmoles/min/µg protein and 199.064 pmoles/min/µg protein

Q: And the OCR ([2]; MKN45, IC50 24 h, time 21.06 min (I5) / 21.09 min (I6))?
A: 69.6082 pmoles/min/µg protein and 82.0209 pmoles/min/µg protein and 78.1047 pmoles/min/µg protein

Q: And the OCR ([2]; MKN45, IC50 24 h, time 27.57 min (I5) / 27.59 min (I6))?
A: 57.4221 pmoles/min/µg protein and 74.9291 pmoles/min/µg protein and 73.3602 pmoles/min/µg protein

Q: What about the OCR ([2]; MKN45, IC50 24 h, time 34.08 min (I5) / 34.07 min (I6)) of the same compound?
A: 57.8854 pmoles/min/µg protein and 73.9423 pmoles/min/µg protein and 73.7207 pmoles/min/µg protein

Q: What about the OCR ([2]; MKN45, IC50 24 h, time 40.66 min (I5) / 40.62 min (I6)) of the same compound?
A: 219.523 pmoles/min/µg protein and 319.315 pmoles/min/µg protein and 325.525 pmoles/min/µg protein
